Each block holds one compound with its values, some of them ahead of it. No end group written: not given here.
What was measured:
Format in all cases: cell-based
human bronchi [1] = assay: Effect of NK1, NK2 or NK3 receptor antagonists on peptide-induced contraction of human isolated bronchi; conditions: phosphoramidon 10^-6 M; for effect of antagonist on contraction by cumulative additions of hHK-1 / response to a single addition of 10^-6 M hHK-1 in the presence of antagonist / effect of antagonist on the response to [Sar^9,Met(O2)^11] SP (10^-6 M), single addition: antagonist 10^-7 M; for effect of antagonist on contraction by cumulative additions of hHK-1: n = 5-12; for response to a single addition of 10^-6 M hHK-1 in the presence of antagonist: % of ACh 3 mM, control 42 ± 4%, not significant, mean ± s.e.m., n = 6-12; for effect of antagonist on the response to [Sar^9,Met(O2)^11] SP (10^-6 M), single addition: n = 6; for effect of the association of SR 140333 and SR 48968 on contraction to a single addition of 10^-6 M hHK-1: both antagonists 10^-7 M together
Source text: (§1) Human bronchial tissues were removed from 47 patients undergoing surgical resection at Foch Hospital (Suresnes, France) or Val d'or Clinic (Saint Cloud, France) for lung cancer (31 men and 16 women; age = 64 ± 9 years). Just after resection, segments of human bronchi with an inner diameter (ID) of 1 to 3 mm were taken as far as possible from the malignant lesion. Male Hartley guinea pigs (Charles River, L'Arbresle, France) weighing 300 to 350 g were sacrificed by cervical dislocation, and tracheas and proximal bronchi were removed. After the removal of adhering lung parenchyma and connective tissues, rings from human bronchi (5-7 mm long, […]) and guinea pig trachea (3 mm long, 3 mm ID) or proximal airways (3 mm long, 1 mm ID) were prepared. 8 to 24 segments of human bronchi were obtained from each patient, whereas 8 trachea segments and 2 to 3 main bronchi segments were obtained from each guinea pig. For RT-PCR analysis, human bronchi were isolated within 1 hour after resection, immediately disrupted and homogenized in TRIzol reagent (Invitrogen) with a Potter Elvehjem homogenizer, and homogenates were kept frozen at -80°C until mRNA extraction. Experiments with human lung tissues were approved by the Regional Ethics Committee for Biomedical Research and animals were used as recommended by animal care guidelines.
(§2) Human bronchial rings and guinea pig tracheal and bronchial rings were suspended on hooks in 5 mL organ bath containing a modified Krebs-Henseleit solution (NaCl 119, KCl 4.7, CaCl2 2.5, KH2PO4 1.2, NaHCO3 25 and glucose 11.7 mM), maintained at 37°C and oxygenated with 95% O2 and 5% CO2. An initial tension of 2 g was applied to tissues, according to previously described protocols. Changes of tension were measured isometrically with Gould strain gauges (UF1; Piodem, Canterburry, Kent, UK); and were recorded and post-processed with IOX and Datanalyst softwares (Emka Technologies France, Paris). During the initial stabilization period (30 min), tissues were washed every 10 minutes with Krebs-Henseleit solution. Phosphoramidon was used to inhibit enzymatic degradation of tachykinins by NEP [21, 40]. Phosphoramidon (10^-6 M) was added in organ bath with or without NK1-, NK2- or NK3-receptor antagonists (SR 140333, SR 48968 and SR 142801, 10^-7 M) after the first stabilization period. Antagonist concentrations were chosen based on their reported affinities for human tachykinin receptors and on their ability to antagonize HK-1-induced responses at similar concentrations in other models. Tissues were then equilibrated 1 hour and concentration-response curves to tachykinins and related peptides were established by applying cumulative concentrations of peptides at 5 to 10 min intervals in semi-logarithmic increments, or by applying a single concentration of peptide. Only one concentration-response curve to tachykinins was recorded in each strip, and each experiment was performed in duplicate. Maximal response was determined by a final addition of acetylcholine hydrochloride (ACh, 3 mM). Contractile responses to tachykinins and related compounds were expressed as percentage of that induced by ACh. The pD2 (defined as the negative log of the molar drug concentration that caused 50% of maximal effect) were calculated from the log concentration-effect curves. When the pD2 value was not assessable (maximal effect (Emax) not reached), it was replaced by the -log EC20 (defined as the negative log of the drug concentration that caused 20% of maximal contraction with ACh). All values in the text and in the figures are expressed as arithmetic mean ± standard error of the mean (s.e.m) of duplicate experiments on tissues from the given (n) number of individuals or animals.

guinea-pig trachea [2] = assay: Effect of NK1 or NK2 receptor antagonists on hHK-1-induced contraction of guinea pig trachea; conditions: for effect of antagonist on contractions induced by hHK-1, guinea-pig trachea: antagonist 10^-7 M, cumulative additions of hHK-1, phosphoramidon 10^-6 M
Source text: as §1, with “For RT-PCR analysis, human bronchi were isolated within 1 hour after resection, immediately disrupted and homogenized in TRIzol reagent (Invitrogen) with a Potter Elvehjem homogenizer, and homogenates were kept frozen at -80°C until mRNA extraction. Experiments with human lung tissues were approved by the Regional Ethics Committee for Biomedical Research and animals were used as recommended by animal care guidelines.” left out
(§3) Human bronchial rings and guinea pig tracheal and bronchial rings were suspended on hooks in 5 mL organ bath containing a modified Krebs-Henseleit solution (NaCl 119, KCl 4.7, CaCl2 2.5, KH2PO4 1.2, NaHCO3 25 and glucose 11.7 mM), maintained at 37°C and oxygenated with 95% O2 and 5% CO2. […] Changes of tension were measured isometrically with Gould strain gauges (UF1; Piodem, Canterburry, Kent, UK); and were recorded and post-processed with IOX and Datanalyst softwares (Emka Technologies France, Paris). […] Only one concentration-response curve to tachykinins was recorded in each strip, and each experiment was performed in duplicate. Maximal response was determined by a final addition of acetylcholine hydrochloride (ACh, 3 mM). Contractile responses to tachykinins and related compounds were expressed as percentage of that induced by ACh. The pD2 (defined as the negative log of the molar drug concentration that caused 50% of maximal effect) were calculated from the log concentration-effect curves. […]

guinea pig main bronchi [3] = assay: Effect of NK1 or NK2 receptor antagonists on hHK-1-induced contraction of guinea pig main bronchi; conditions: antagonist 10^-7 M; cumulative additions of hHK-1; phosphoramidon 10^-6 M; n = 5-7
Source text: (§4) Human bronchial tissues were removed from 47 patients undergoing surgical resection at Foch Hospital (Suresnes, France) or Val d'or Clinic (Saint Cloud, France) for lung cancer (31 men and 16 women; age = 64 ± 9 years). Just after resection, segments of human bronchi with an inner diameter (ID) of 1 to 3 mm were taken as far as possible from the malignant lesion. Male Hartley guinea pigs (Charles River, L'Arbresle, France) weighing 300 to 350 g were sacrificed by cervical dislocation, and tracheas and proximal bronchi were removed. […]
as §3, with “ACh.” for “ACh. The pD2 (defined as the negative log of the molar drug concentration that caused 50% of maximal effect) were calculated from the log concentration-effect curves.”

guinea-pig trachea [4] = assay: Contraction of guinea pig trachea by tachykinin peptides (organ bath); conditions: cumulative additions, phosphoramidon 10^-6 M; for Emax (% of Ach 3 mM) / pD2: guinea-pig trachea, mean ± s.e.m. for n determinations (n = 6-12); for contractile effect on guinea-pig trachea: EKA/B 10^-8 M-10^-6 M
Source text: as §1, §2

human bronchi [5] = assay: Contraction of human isolated bronchi by tachykinin peptides (organ bath, isometric tension); conditions: phosphoramidon 10^-6 M
Source text: as §1, §2

human bronchi [6] = assay: Cross-desensitization of NK1 receptors after consecutive applications of hHK-1 and [Sar^9,Met(O2)^11] SP on human bronchi; conditions: phosphoramidon 10^-6 M, n = 5
Protocol: as §2

guinea pig main bronchi [7] = assay: Contraction of guinea pig main bronchi by tachykinin peptides (organ bath); conditions: cumulative additions; phosphoramidon 10^-6 M; n = 6-7
Source text: as §4
as §3, with “ACh.” for “ACh. The pD2 (defined as the negative log of the molar drug concentration that caused 50% of maximal effect) were calculated from the log concentration-effect curves.”

[8] = 10^-7 M, % of ACh 3 mM, mean ± s.e.m.

effect of antagonist on contraction by cumulative additions of hHK-1 (human bronchi [1]): did not alter
Compound: CC(=O)N(C)C1(c2ccccc2)CCN(CCCC2(c3ccc(Cl)c(Cl)c3)CCCN(C(=O)c3ccccc3)C2)CC1 (stereo in doubt) [SR 142801, (S)-(N)-(1-(3-(1-benzoyl-3-(3,4-dichlorophenyl)piperidin-3-yl)propyl)-4-phenylpiperidin-4-yl)-N-methylacetamide]

effect of antagonist on contraction by cumulative additions of hHK-1 (human bronchi [1]): completely abolished
effect of antagonist on the response to [Sar^9,Met(O2)^11] SP (10^-6 M), single addition (human bronchi [1]): unmodified
effect of the association of SR 140333 and SR 48968 on contraction to a single addition of 10^-6 M hHK-1 (human bronchi [1]): abolished the smooth muscle contraction
effect of antagonist on contractions induced by hHK-1, guinea-pig trachea (guinea-pig trachea [2]): altered to a lesser extent
effect of antagonist on contractions induced by hHK-1, guinea pig main bronchi (guinea pig main bronchi [3]): altered to a lesser extent
Compound: CC(=O)NC1(c2ccccc2)CCN(CC[C@H](CN(C)C(=O)c2ccccc2)c2ccc(Cl)c(Cl)c2)CC1 [SR 48968, (S)-N-methyl-N-[4-acetylamino-4-phenylpiperidino-2-(3,4-dichlorophenyl)butyl]benzamide]
response to a single addition of 10^-6 M hHK-1 in the presence of antagonist (human bronchi [1]): 31 ± 4%

Compound: CC(C)Oc1cccc(CC(=O)N2CCC[C@](CC[N+]34CCC(c5ccccc5)(CC3)CC4)(c3ccc(Cl)c(Cl)c3)C2)c1.[Cl-] [SR 140333, (S)1-(2-[3-(3,4-dichlorophenyl)-1-(3-isopropoxyphenylacetyl)piperidin-3-yl]ethyl)-4-phenyl-1-azoniabicyclo [2.2.2]octane chloride]
response to a single addition of 10^-6 M hHK-1 in the presence of antagonist (human bronchi [1]): 31 ± 5%
effect of antagonist on contraction by cumulative additions of hHK-1 (human bronchi [1]): small but not statistically significant reduction
effect of antagonist on the response to [Sar^9,Met(O2)^11] SP (10^-6 M), single addition (human bronchi [1]): specifically abolished
effect of the association of SR 140333 and SR 48968 on contraction to a single addition of 10^-6 M hHK-1 (human bronchi [1]): abolished the smooth muscle contraction
effect on maximal contractions induced by hHK-1, guinea-pig trachea (guinea-pig trachea [2]; SR 140333 10^-9 to 10^-7 M, n = 4-11, suggesting non competitive antagonism): reduced maximal contractions
effect of antagonist on contractions induced by hHK-1, guinea-pig trachea (guinea-pig trachea [2]): abolished
effect of antagonist on contractions induced by hHK-1, guinea pig main bronchi (guinea pig main bronchi [3]): abolished

Compound: [Sar^9,Met(O2)^11] substance P [[Sar^9,Met(O2)^11] SP]
Emax (% of Ach 3 mM) (guinea-pig trachea [4]): 76 ± 2 % of Ach 3 mM
pD2 (guinea-pig trachea [4]): 7.5 ± 0.1
Emax, cumulative additions in the presence of SR 48968 (human bronchi [5]; NK2 antagonist SR 48968 10^-7 M, inverted U-shaped curve, % of ACh 3 mM, mean ± s.e.m.): 13 ± 3%
pD2, single additions in the presence of SR 48968 (human bronchi [5]; NK2 antagonist SR 48968 10^-7 M, non cumulative additions, mean ± s.e.m., hHK-1 n = 5-7, [Sar^9,Met(O2)^11] SP n = 10): 8.0 ± 0.4
maximal contraction, single additions in the presence of SR 48968 (human bronchi [5]; NK2 antagonist SR 48968 10^-7 M, non cumulative additions, sigmoid curve, % of ACh 3 mM, mean ± s.e.m., hHK-1 n = 5-7, [Sar^9,Met(O2)^11] SP n = 10): 26 ± 7%
contraction, first addition of [Sar^9,Met(O2)^11] SP (followed by a second addition of the same peptide) (human bronchi [6]; [8]): 33 ± 7%
contraction, initial addition of [Sar^9,Met(O2)^11] SP (followed by hHK-1) (human bronchi [6]; [8]): 32 ± 7%
contraction, second addition of [Sar^9,Met(O2)^11] SP after a first addition of [Sar^9,Met(O2)^11] SP (human bronchi [6]; 10^-7 M, % of ACh 3 mM, mean ± s.e.m., p < 0.01 vs first): 4 ± 1%
response to [Sar^9,Met(O2)^11] SP after a first addition of hHK-1 (human bronchi [6]; [Sar^9,Met(O2)^11] SP 10^-7 M after hHK-1 3.10^-7 M): abolished

Compound: [β-Ala^8]-NKA (4-10)
Emax (% of Ach 3 mM) (guinea-pig trachea [4]): 80 ± 5 % of Ach 3 mM
pD2 (guinea-pig trachea [4]): 8.3 ± 0.6

Compound: endokinin A/B [EKA/B]
-log EC20 (human bronchi [5]; negative log of concentration causing 20% of maximal contraction with ACh, cumulative additions, mean ± s.e.m., n = 3): 7.2 ± 0.3
potency on guinea-pig isolated bronchi compared with SP and [Sar^9,Met(O2)^11] SP (guinea pig main bronchi [7]): less potent

Compound: endokinin C (KKAYQLEHTFQGLL; ends and bridges not checked; UniProt Q86UU9 82-95, looked up) [EKC, peptide derived from TAC4, custom synthesized]
contractile effect on guinea-pig trachea (guinea-pig trachea [4]): without effect
contractile activity on human isolated bronchi (human bronchi [5]; cumulative additions, n = 3): devoid of any contractile activity

Compound: endokinin D [EKD]
contractile effect on guinea-pig trachea (guinea-pig trachea [4]): without effect
contractile activity on human isolated bronchi (human bronchi [5]; cumulative additions, n = 3): devoid of any contractile activity

Source: PMC2959027, “Expression and function of human hemokinin-1 in human and guinea pig airways” (Respiratory Research, 2010)
